# Results from patent US7148193B2, “Compounds that bind to growth hormone receptor” (Antyra, Inc., priority 1997, dated 2006).
# Positions count from the first letter of the chain named. Where a SMILES comes first, the peptide text is derived from it. Bridges are numbered along the chain shown (N, C = ends).
# Columns and labels:
# [1] = molecular target: T1, rGHBP (Rattus norvegicus, UniProt P16310); assay: Phage ELISA binding and competition on rGHBP coated wells
# T1 construct: 1–48 of GHBP; The 3′ oligo used for this reaction encoded the mutation L43R (CTG→AGA); The second PCR reaction amplified the DNA encoding amino acids 38–260; 6xHis; made in house
# T1 sequence (P16310 19-278 isoform P16310-2): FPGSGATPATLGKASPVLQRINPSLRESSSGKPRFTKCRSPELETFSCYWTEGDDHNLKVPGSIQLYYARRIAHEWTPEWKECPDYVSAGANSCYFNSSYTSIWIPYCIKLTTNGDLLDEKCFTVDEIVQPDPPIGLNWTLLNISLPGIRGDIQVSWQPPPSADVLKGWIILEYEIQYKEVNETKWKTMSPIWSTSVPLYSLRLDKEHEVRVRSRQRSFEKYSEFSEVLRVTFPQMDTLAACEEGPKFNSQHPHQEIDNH
# Description: For analysis of individual clones, colonies were picked and phage prepared as described above. Microtiter wells were coated and blocked as described above. Wells were coated with either rGHBP or a control IgG MAb. Phage resuspended in MPBS were added to duplicate wells (100 μl/well) and incubated at room temperature for 1 hr. The phage solution was then removed, and the wells were washed three times with PBS at room temperature. Anti-M13 antibody conjugated to horseradish peroxidase (Pharmacia Biotech) was diluted 1:3000 in MPBS and added to each well (100 μl/well). Incubation was for another hour at room temperature, followed by PBS washes as described. Color was developed by addition of ABTS solution (100 μl/well; Boehringer). Color development was stopped by adjusting each well to 0.5% SDS. Plates were analyzed at 405 nm using a SpectraMax 340 plate reader (Molecular Devices) and SoftMax Pro software. Data points were averaged after subtraction of appropriate blanks. A clone was considered “positive” if the A405 of the well was >2-fold over background. […]
# These clones were next analyzed for binding to the receptor's active sites (FIG. 2B). Competitions of phage binding were done both with the cognate ligand (i.e., GH) and with a specific target-neutralizing MAb 2C3 (Wang, B. S., et al. Mol. Cellular Endocrinology, vol. 116, p. 223–226, 1996).
# Clones were tested for the presence of E-tag and binding to ‘hu’ GHBP, rGHBP, or BSA-coated wells. Those having specific GHBP binding (i.e., at least 2 fold greater binding to the GHBP than BSA) and with an E-tag positive signal were subjected to DNA sequencing. Three different clones were isolated and tested a second time against GHBP plus and minus GH (1 μM) or BSA (1 μM) coated wells as described. In these tests, huGH was used as competitor with ‘hu’ GHBP coated wells and bovineGH was used as a competitor with rat GHBP coated wells. […] The following open reading frame insertion including the DYKD (SEQ ID NO:79) amino terminal tag and up to the C-terminal E-tag was obtained for these clones; and is shown in Table III: […]
# [2] = molecular target: T1, rGHBP; assay: Species specificity of binding by ELISA and BIAcore, rGHBP; conditions: in words
# Description: (§1) Wells were coated with either recombinant rGHBP or ‘hu’ GHBP (100 ng/well). Additions of H5 (SEQ ID NO:8) and H10 (SEQ ID NOS:9, 80, and 81) phage (10^10/well) and detection were made as described. […] Streptavidin chips were coated with H5 (SEQ ID NO:8) to 1100 RU as described and rGHBP or ‘hu’ GHBP (500 μg/ml) injected as 30 μl samples.
# (§2) Growth hormone receptors from different species bind human GH as well as their own GH, however human GHR only binds human or monkey GH. […] The sequence of rGHBP was altered by PCR to create a “humanized” version (‘hu’ GHBP; FIG. 9A). Partially purified ‘hu’GHBP (FIG. 9B) was tested for binding using ELISA and BIAcore analysis. […] This was confirmed by BIAcore analysis (FIG. 10B).
# (§3) The biotinylated control peptide (SEQ ID NO:10) was immobilized onto one flow cell of a SA-5 (streptavidin coated) sensor chip to a final density of 700 RU. On a second flow cell, either hGH (1100 RU final density), H5WT peptide (SEQ ID NO:8; 1100 RU final density), or bGH (730 RU final density) was immobilized. GHBP (either rat or humanized) was injected at a concentration of 500 μg/ml with a flow rate of 5 μl/min. Background binding to the control surface was subtracted prior to further analysis.
# [3] = molecular target: T2, ‘hu’ GHBP (Rattus norvegicus, UniProt P16310, L61R); assay: Species specificity of binding by ELISA and BIAcore, 'hu' GHBP; conditions: in words
# T2 construct: 1–48 of GHBP; The 3′ oligo used for this reaction encoded the mutation L43R (CTG→AGA); The second PCR reaction amplified the DNA encoding amino acids 38–260; 6xHis; made in house
# T2 sequence (P16310 19-278 isoform P16310-2 L61R): T1 sequence (P16310 19-278 isoform P16310-2) with L43R
# Description: as §1, §2, §3
smiles,measurement,setting,value
CC(C)C[C@@H]1NC(=O)[C@H](CO)NC(=O)[C@H](CCC(N)=O)NC(=O)[C@@H](NC(=O)[C@H](CC(C)C)NC(=O)[C@H](CC(=O)O)NC(=O)[C@H](CCCCN)NC(=O)[C@H](Cc2ccc(O)cc2)NC(=O)[C@@H](N)CC(=O)O)CSSC[C@@H](C(=O)N[C@@H](C)C(=O)N[C@@H](CCCCN)C(=O)N[C@@H](CCCCN)C(=O)O)NC(=O)[C@H](Cc2c[nH]c3ccccc23)NC(=O)CNC(=O)[C@H](C)NC(=O)[C@H](CC(C)C)NC(=O)[C@H](Cc2c[nH]c3ccccc23)NC(=O)CNC(=O)[C@@H]2CCCN2C(=O)[C@H](Cc2ccc(O)cc2)NC(=O)[C@H]([C@@H](C)O)NC(=O)[C@H](C(C)C)NC(=O)CNC1=O [H5] (H-DYKDLCQSLGVTYPGWLAGWCAKK-OH; disulfide 6-21; N-terminus and C-terminus assumed),"ELISA Competition, rGHBP, +BSA","[1]; ELISA signal, BSA 1 μM, phage concentrated 15×",1.87
same,"ELISA Competition, rGHBP, +bGH","[1]; ELISA signal, bovine GH 1 μM, phage concentrated 15×",0.32
same,"ELISA Competition, rGHBP, none","[1]; ELISA signal, no competitor, phage concentrated 15×",1.91
same,phage binding to rGHBP blocked by GH and MAb 2C3,[1]; competition ELISA of phage binding,blocked both by GH and by MAb 2C3
same,binding to rGHBP,[2],bound to rGHBP
same,binding to ‘hu’ GHBP,[3],not ‘hu’GHBP
